Laboratory results reported in PubChem BioAssay AID256 (DTP/NCI, 2004).
Toxic doses and inconclusive results are not listed. Rule for the calls: active = survival T/C of 150% or more; inactive = T/C below 125% in these data.

Tested on: CD2F1 mice, L1210 leukemia ip, survival T/C
Test: NCI In Vivo Anticancer Drug Screen. Data for tumor model L1210 Leukemia (intraperitoneal) in CD2F1 (CDF1) mice
Details: endpoint: mean survival time, higher = longer survival
Summary of the method: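 Each value reflects a quotient of treated over vehicle control outcomes in mice with a transplanted tumor.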

[1] = dose: 50.0 mg/kg/injection, schedule: Q01DX009 (ip), vehicle: saline with Tween-80
[2] = dose: 100.0 mg/kg/injection, schedule: Q01DX009 (ip), vehicle: saline with Tween-80
[3] = dose: 100.0 mg/kg/injection, schedule: Q04DX003 (ip), vehicle: saline with Tween-80
[4] = dose: 200.0 mg/kg/injection, schedule: Q04DX003 (ip), vehicle: saline with Tween-80
[5] = dose: 400.0 mg/kg/injection, schedule: Q04DX003 (ip), vehicle: saline with Tween-80
[6] = dose: 50.0 mg/kg/injection, schedule: Q01DX009 (ip), vehicle: saline
[7] = dose: 100.0 mg/kg/injection, schedule: Q01DX009 (ip), vehicle: saline
[8] = dose: 100.0 mg/kg/injection, schedule: Q01DX001 (ip), vehicle: saline with Tween-80
[9] = dose: 200.0 mg/kg/injection, schedule: Q01DX001 (ip), vehicle: saline with Tween-80

Measured: T/C

CCC1=CC(C)(C)CC(C)=C1 (tested in a mixture with another compound)
inactive: [1] 110 % of control | [2] 100 % of control | [3] 96 % of control | [4] 96 % of control | [5] 93 % of control

N=C(N)c1ccc(N)cc1
inactive: dose: 100.0 mg/kg/injection, schedule: Q04DX003 (ip), vehicle: saline 103 % of control | dose: 200.0 mg/kg/injection, schedule: Q04DX003 (ip), vehicle: saline 101 % of control

[Cl][Pt+2][Cl].[NH-]c1ccccc1[NH-]
inactive: dose: 1.25 mg/kg/injection, schedule: Q01DX009 (ip), vehicle: saline with Tween-80 120 % of control | dose: 10.0 mg/kg/injection, schedule: Q01DX009 (ip), vehicle: saline with Tween-80 100 % of control

NCc1cccc(-c2nc3ncnc(N)c3[nH]2)c1
inactive: [6] 101 % of control | [7] 105 % of control

COC(=O)C1(C)CCCC2(C)C1CCC13C2CC1C1(C(C)C)OC31 (stereo not given)
inactive: [3] 89 % of control | [4] 92 % of control

NCC(O)O.NCC(O)O.NCC(O)O.NCC(O)O.[Mo].[Mo]
inactive: [8] 93 % of control | [9] 89 % of control | dose: 400.0 mg/kg/injection, schedule: Q01DX001 (ip), vehicle: saline with Tween-80 104 % of control

C/C(=N\Nc1ccc([N+](=O)[O-])cc1[N+](=O)[O-])C1CCCCC1
inactive: [3] 100 % of control | [4] 91 % of control | [5] 91 % of control

C[n+]1cccc(C(=S)[S-])c1
inactive: dose: 25.0 mg/kg/injection, schedule: Q01DX009 (ip), vehicle: saline with Tween-80 102 % of control | [1] 101 % of control | [3] 101 % of control

Cc1cc(CC(O)(C(F)(F)Cl)C(F)(F)Cl)cc(C)n1
inactive: [3] 95 % of control | [4] 92 % of control | [5] 90 % of control

CCOC(=O)CCCSc1nn(C2OC(CO)C(O)C2O)c(=O)[nH]c1=O (stereo not given)
inactive: dose: 12.5 mg/kg/injection, schedule: Q01DX005 (ip), vehicle: water 101 % of control | dose: 25.0 mg/kg/injection, schedule: Q01DX005 (ip), vehicle: water 101 % of control | dose: 50.0 mg/kg/injection, schedule: Q01DX005 (ip), vehicle: water 101 % of control | dose: 100.0 mg/kg/injection, schedule: Q01DX005 (ip), vehicle: water 98 % of control | dose: 200.0 mg/kg/injection, schedule: Q01DX005 (ip), vehicle: water 104 % of control

O=S1(=O)CC2(C1)CS(=O)(=O)C2
inactive: [8] 103 % of control | [9] 90 % of control

O=S(Nc1ccccc1)Nc1ccccc1
inactive: [2] 95 % of control | [3] 97 % of control | [4] 94 % of control | [5] 97 % of control

CCc1ncc(C(C)(O)c2ccc(C)cc2)n1Cc1ccccc1 (stereo not given)
inactive: [2] 92 % of control | dose: 200.0 mg/kg/injection, schedule: Q01DX009 (ip), vehicle: saline with Tween-80 90 % of control | dose: 400.0 mg/kg/injection, schedule: Q01DX009 (ip), vehicle: saline with Tween-80 97 % of control

COc1ccc2c(c1OC(C)=O)-c1cc(O)cc3c1C(C2)N(C(=O)CN(CCCl)CCCl)CC3 (stereo not given)
inactive: dose: 6.25 mg/kg/injection, schedule: Q04DX003 (ip), vehicle: DMSO 98 % of control | dose: 12.5 mg/kg/injection, schedule: Q04DX003 (ip), vehicle: DMSO 91 % of control | dose: 25.0 mg/kg/injection, schedule: Q04DX003 (ip), vehicle: DMSO 100 % of control | dose: 50.0 mg/kg/injection, schedule: Q04DX003 (ip), vehicle: DMSO 102 % of control

CC(C)(C)S(=O)(=O)C(C)(C)C
inactive: [3] 98 % of control | [4] 93 % of control | [5] 93 % of control

COC(=O)C(NC(=O)C(CSC(c1ccccc1)(c1ccccc1)c1ccccc1)NC(c1ccccc1)(c1ccccc1)c1ccccc1)C(C)C (stereo not given)
inactive: [6] 98 % of control | [7] 92 % of control | dose: 200.0 mg/kg/injection, schedule: Q01DX009 (ip), vehicle: saline 97 % of control | dose: 400.0 mg/kg/injection, schedule: Q01DX009 (ip), vehicle: saline 89 % of control
